Measured values: paper PMC9250534, “Synthesis and direct assay of large macrocycle diversities by combinatorial late-stage modification at picomole scale” (Nature Communications, 2022)
Numbered stars: 1 amine (or outer) side, 2 acyl side, 3 side chain; on linkers, the order of the positions; unused ones are H or OH. Bridge positions count the residues as written; N and C are the ends. Square brackets hold non-standard residues; d marks the D form. Peptide text beside a SMILES is read from it. * marks the point of attachment. 2Thenoyl(5-Cl) = O=C(c1ccc(Cl)s1)*; Cysteamide = C(CS[*:3])N[*:1]; dDap = NC[C@@H](N)C(=O)O; Orn = NCCC[CH](N)C(=O)O; Dap = NC[C@H](N)C(=O)O; Mpa = O=C(O)CCS

Molecular target: T1, thrombin (Homo sapiens, UniProt P00734)
T1 construct: consists of two polypeptide chains of 36 (light chain) and 259 amino acid
Assay: Thrombin inhibition screen of crude macrocycle reactions (residual thrombin activity, fluorogenic substrate Z-Gly-Gly-Arg-AMC)
Format: biochemical
Conditions: 10 µM macrocycle concentration, macrocycles containing acid 14, crude reaction; for % thrombin activity, Repeat screen: replicate reaction and screen
Method in brief: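 Residual activity was measured as the AMC release rate after adding 50 μM Z-Gly-Gly-Arg-AMC. This followed a 10-min room-temperature preincubation of 2 nM thrombin with 10 μM single macrocycles in pH 7.4 Tris buffer (0.6% DMSO). Percent inhibition was taken against the mean slope of DMSO controls.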

SMILES | % thrombin activity, Original screen [%] | % thrombin activity, Repeat screen [%] | % thrombin activity, Original screen (listed as X D6 V B5) [%] | % thrombin activity, Repeat screen (listed as X D6 V B5) [%]
O=C1CCSSCCNC(=O)c2ccc(cc2)CNC(=O)[C@H](Cc2c[nH]c3ccccc23)NC(=O)[C@H](CNC(=O)c2ccc(Cl)s2)N1 [X D3 W B3] | 101.5 | 109.4 |  | 
O=C1CCNC(=O)[C@@H](Cc2ccc(O)cc2)NC(=O)[C@H](CNC(=O)c2ccc(Cl)s2)NC(=O)CCSSCCN1 [X D3 y B2] | 78.6 | 75.2 |  | 
CC1NC(=O)C(CNC(=O)c2ccc(Cl)s2)NC(=O)CCSSCCNC(=O)c2cccc(c2)CNC1=O (stereo not shown) [X D4 a B5] | 103.5 | 106.9 |  | 
O=C1CCSSCCNC(=O)[C@@H]2CCCN2C(=O)[C@@H](Cc2c[nH]c3ccccc23)NC(=O)[C@@H](CNC(=O)c2ccc(Cl)s2)N1 [X D4 w B1] ([Mpa][dDap](2Thenoyl(5-Cl))[dW]P-Cysteamide; disulfide 1-C) | 68.9 | 70.9 |  | 
O=C1CCNC(=O)[C@@H](Cc2c[nH]c3ccccc23)NC(=O)[C@@H](CNC(=O)c2ccc(Cl)s2)NC(=O)CCSSCCN1 [X D4 w B2] | 90.8 | 96.7 |  | 
O=C1CCNC(=O)C2CC(NC(=O)c3ccc(Cl)s3)CN2C(=O)CCSSCCNC(=O)C(CO)N1 (stereo not shown) [X D5 B2 S] | 115.0 | 124.0 |  | 
CC(C)CC1NC(=O)C2(CC2)CNC(=O)C2CC(NC(=O)c3ccc(Cl)s3)CN2C(=O)CCSSCCNC1=O (stereo not shown) [X D5 B6 L] | 114.0 | 116.8 |  | 
CC(C)CC1NC(=O)C2CC(NC(=O)c3ccc(Cl)s3)CN2C(=O)CCSSCCNC(=O)c2ccc(cc2)CNC1=O (stereo not shown) [X D5 L B3] | 110.6 | 115.5 |  | 
CC(C)CC1NC(=O)C2CC(NC(=O)c3ccc(Cl)s3)CN2C(=O)CCSSCCNC(=O)C2CCCN(C2)C1=O (stereo not shown) [X D5 L B4] | 94.2 | 89.4 |  | 
NC(=O)CCC1NC(=O)C2CC(NC(=O)c3ccc(Cl)s3)CN2C(=O)CCSSCCNC(=O)c2ccc(cc2)CNC1=O (stereo not shown) [X D5 Q B3] | 94.5 | 101.1 |  | 
O=C1NCCSSCCC(=O)N2CC(NC(=O)c3ccc(Cl)s3)CC2C(=O)NC(CO)C(=O)NCc2ccc1cc2 (stereo not shown) [X D5 s B3] | 92.6 | 101.4 |  | 
CC[C@H](C)[C@@H]1NC(=O)CCNC(=O)C2(CCN(C(=O)c3ccc(Cl)s3)CC2)NC(=O)CCSSCCNC1=O [X D6 B2 I] | 104.4 | 109.7 |  | 
CC1NC(=O)c2ccc(cc2)CNC(=O)C2(CCN(C(=O)c3ccc(Cl)s3)CC2)NC(=O)CCSSCCNC1=O (stereo not shown) [X D6 B3 a] | 92.0 | 95.8 |  | 
CC(C)C[C@@H]1NC(=O)c2cccc(c2)CNC(=O)C2(CCN(C(=O)c3ccc(Cl)s3)CC2)NC(=O)CCSSCCNC1=O [X D6 B5 L] | 105.2 | 108.9 |  | 
O=C1CCSSCCNC(=O)[C@@H](Cc2ccccc2)NC(=O)c2cccc(c2)CNC(=O)C2(CCN(C(=O)c3ccc(Cl)s3)CC2)N1 [X D6 B5 f] | 92.3 | 95.8 |  | 
O=C1CCSSCCNC(=O)[C@H](Cc2c[nH]cn2)NC(=O)C2(CC2)CNC(=O)C2(CCN(C(=O)c3ccc(Cl)s3)CC2)N1 [X D6 B6 H] | 96.8 | 96.5 |  | 
CC(C)C1NC(=O)C2(CCN(C(=O)c3ccc(Cl)s3)CC2)NC(=O)CCSSCCNC(=O)C2CCCN(C2)C1=O (stereo not shown) [X D6 V B4] | 81.5 | 80.4 |  | 
O=C1CCSSCCNC(=O)[C@H]2CCCN(C2)C(=O)[C@H](Cc2c[nH]c3ccccc23)NC(=O)C2(CCN(C(=O)c3ccc(Cl)s3)CC2)N1 [X D6 W B4] | 95.3 | 101.4 |  | 
CC(C)[C@H]1NC(=O)C2(CCN(C(=O)c3ccc(Cl)s3)CC2)NC(=O)CCSSCCNC(=O)c2cccc(c2)CNC1=O [X D6 v B5] | 84.9 | 90.5 | 98.9 | 103.9
O=C1CCNC(=O)[C@@H](Cc2ccc(O)cc2)NC(=O)C2(CCN(C(=O)c3ccc(Cl)s3)CC2)NC(=O)CCSSCCN1 [X D6 y B2] | 102.0 | 104.5 |  | 
O=C1CCNC(=O)[C@H](Cc2c[nH]cn2)NC(=O)CCSSCCNC(=O)[C@H](CCCNC(=O)c2ccc(Cl)s2)N1 [X H B2 D2] | 94.6 | 91.5 |  | 
O=C1CCSSCCNC(=O)C2CCCN2C(=O)C(CCCNC(=O)c2ccc(Cl)s2)NC(=O)C(Cc2c[nH]cn2)N1 (stereo not shown) [X H D2 B1] ([Mpa]H[Orn](2Thenoyl(5-Cl))P-Cysteamide; disulfide 1-C; configuration not given here) | 95.8 | 95.8 |  | 
CC[C@H](C)[C@@H]1NC(=O)CCSSCCNC(=O)[C@H](CNC(=O)c2ccc(Cl)s2)NC(=O)[C@@H]2CCCN2C1=O [X I B1 D3] ([Mpa]IP[Dap](2Thenoyl(5-Cl))-Cysteamide; disulfide 1-C) | 91.3 | 90.1 |  | 
CC[C@H](C)[C@@H]1NC(=O)CCSSCCNC(=O)[C@H](CNC(=O)c2ccc(Cl)s2)NC(=O)CCNC1=O [X I B2 D3] | 72.9 | 70.2 |  | 
CC[C@H](C)[C@@H]1NC(=O)CCSSCCNC(=O)[C@H]2CCCN(C2)C(=O)[C@H](CCCCNC(=O)c2ccc(Cl)s2)NC1=O [X I D1 B4] | 102.2 | 101.6 |  | 
CC[C@H](C)[C@@H]1NC(=O)CCSSCCNC(=O)c2ccc(cc2)CNC(=O)[C@H](CNC(=O)c2ccc(Cl)s2)NC1=O [X I D3 B3] | 102.3 | 104.9 |  | 
CC(C)C[C@@H]1NC(=O)CCSSCCNC(=O)[C@H](CCCCNC(=O)c2ccc(Cl)s2)NC(=O)C2(CC2)CNC1=O [X L B6 D1] | 94.8 | 97.2 |  | 
CC(C)C[C@@H]1NC(=O)CCSSCCNC(=O)c2cccc(c2)CNC(=O)[C@H](CCCNC(=O)c2ccc(Cl)s2)NC1=O [X L D2 B5] | 100.1 | 95.2 |  | 
